pKi: −log10 of the molar value.

One test concerns the target T1, recombinant human NK3 receptor (Homo sapiens, UniProt P29371).
T1 construct: expressed in transfected cells; host or cells: HEK293 cells, transient expression; membranes
T1 sequence (P29371 1-465): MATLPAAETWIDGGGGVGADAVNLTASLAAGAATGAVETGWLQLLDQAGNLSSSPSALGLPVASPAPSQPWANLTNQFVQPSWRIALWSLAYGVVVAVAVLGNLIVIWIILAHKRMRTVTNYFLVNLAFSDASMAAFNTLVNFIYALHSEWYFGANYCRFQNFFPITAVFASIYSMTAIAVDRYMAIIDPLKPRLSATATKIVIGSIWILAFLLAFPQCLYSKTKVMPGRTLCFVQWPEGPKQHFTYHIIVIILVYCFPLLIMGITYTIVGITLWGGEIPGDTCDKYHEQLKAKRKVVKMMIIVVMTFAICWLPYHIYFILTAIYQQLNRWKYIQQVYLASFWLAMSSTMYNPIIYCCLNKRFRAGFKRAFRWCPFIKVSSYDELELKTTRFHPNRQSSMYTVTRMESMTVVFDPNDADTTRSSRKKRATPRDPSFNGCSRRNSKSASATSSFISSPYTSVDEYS
The test is described as follows: [3H]SR142801 competition binding assay.
Settings: not given
For orientation: pKi means −log10 of the Ki, conventionally taken in molar units. Regarding `CN(C(=O)Oc1ccc(F)cc1)[C@@H]1CN(C(=O)C2CCN(C(=O)C3CCOCC3)CC2)C[C@H]1c1ccc(Cl)cc1` [Example 257, {(3S,4R)-4-(4-Chloro-phenyl)-1-[1-(tetrahydro-pyran-4-carbonyl)-piperidine-4-carbonyl]-pyrrolidin-3-yl}-methyl-carbamic acid 4-fluoro-phenyl ester], the pKi is 8.66.

With `CN(C(=O)Oc1ccc(F)cc1)[C@H]1CN(C(=O)N2CCOCC2)C[C@@H]1c1ccc(Cl)c(Cl)c1` (racemic) [Example 48, rac-[(3R,4S)-4-(3,4-Dichloro-phenyl)-1-(morpholine-4-carbonyl)-pyrrolidin-3-yl]-methyl-carbamic acid 4-fluoro-phenyl ester], the pKi was 7.53.

On to `CN(C(=O)Oc1ccc(F)cc1)[C@@H]1CN(C(=O)C2CCN(c3ccc(C(F)(F)F)cn3)CC2)C[C@H]1c1ccc(Cl)c(F)c1` [Example 313, [(3S,4R)-4-(4-Chloro-3-fluoro-phenyl)-1-(5′-trifluoromethyl-3,4,5,6-tetrahydro-2H-[1,2′]bipyridinyl-4-carbonyl)-pyrrolidin-3-yl]-methyl-carbamic acid 4-fluoro-phenyl ester], for which the pKi is 9.05.

For `CN(C(=O)Oc1ccc(F)cc1)[C@@H]1CN(C(=O)C2CCN(C3CCOCC3)CC2)C[C@H]1c1ccc(Cl)cc1` [Example 112, {(3S,4R)-4-(4-Chloro-phenyl)-1-[1-(tetrahydro-pyran-4-yl)-piperidine-4-carbonyl]-pyrrolidin-3-yl}-methyl-carbamic acid 4-fluoro-phenyl ester], the pKi is 8.43.

With `CN(C(=O)Oc1ccc(F)cc1)[C@@H]1CN(C(=O)C2CCN(c3ccc(C#N)nn3)CC2)C[C@H]1c1ccc(Cl)cc1` [Example 140, {(3S,4R)-4-(4-Chloro-phenyl)-1-[1-(6-cyano-pyridazin-3-yl)-piperidine-4-carbonyl]-pyrrolidin-3-yl}-methyl-carbamic acid 4-fluoro-phenyl ester], the pKi was 9.05.

In the case of `CN(C(=O)O[C@H]1CC[C@H](C)CC1)[C@@H]1CN(C(=O)C2CCN(c3ccc(C#N)cn3)CC2)C[C@H]1c1ccc(Cl)cc1` [Example 221, [(3S,4R)-4-(4-Chloro-phenyl)-1-(5′-cyano-3,4,5,6-tetrahydro-2H-[1,2′]bipyridinyl-4-carbonyl)-pyrrolidin-3-yl]-methyl-carbamic acid 4-methyl-cyclohexyl ester], the pKi was 9.00.

As for `CN(C(=O)Oc1ccc(Cl)cc1)[C@H]1CN(C(=O)C2CCN(C(=O)C3(C)CC3)CC2)C[C@@H]1c1ccc(Cl)c(Cl)c1` (racemic) [Example 12, rac-{(3R,4S)-4-(3,4-Dichloro-phenyl)-1-[1-(1-methyl-cyclopropanecarbonyl)-piperidine-4-carbonyl]-pyrrolidin-3-yl}-methyl-carbamic acid 4-chloro-phenyl ester], the pKi was 9.22.

On to `CN(C(=O)Oc1ccc(F)cc1)[C@@H]1CN(C(=O)C2CCN(C(=O)CC#N)CC2)C[C@H]1c1ccc(F)cc1` [Example 284, [(3S,4R)-1-[1-(2-Cyano-acetyl)-piperidine-4-carbonyl]-4-(4-fluoro-phenyl)-pyrrolidin-3-yl]-methyl-carbamic acid 4-fluoro-phenyl ester], for which the pKi was 7.51.

For the molecule `CN(C(=O)OC(c1ccc(F)cc1)C1CC1)[C@@H]1CN(C(=O)C2CCN(c3ccc(C#N)cn3)CC2)C[C@H]1c1ccc(Cl)cc1` (stereo partly drawn) [Example 239, [(3S,4R)-4-(4-Chloro-phenyl)-1-(5′-cyano-3,4,5,6-tetrahydro-2H-[1,2′]bipyridinyl-4-carbonyl)-pyrrolidin-3-yl]-methyl-carbamic acid cyclopropyl-(4-fluoro-phenyl)-methyl ester], the pKi was 7.21.

`CC(CC(F)(F)F)OC(=O)N(C)[C@@H]1CN(C(=O)C2CCN(c3ccc(C#N)cn3)CC2)C[C@H]1c1ccc(Cl)cc1` (stereo partly drawn) [Example 177, [(3S,4R)-4-(4-Chloro-phenyl)-1-(5′-cyano-3,4,5,6-tetrahydro-2H-[1,2′]bipyridinyl-4-carbonyl)-pyrrolidin-3-yl]-methyl-carbamic acid 3,3,3-trifluoro-1-methyl-propyl ester]: the pKi is 7.72.

Turning to `CN(C(=O)Oc1ccc(F)cc1)[C@@H]1CN(C(=O)C2CCN(C(=O)[C@@H]3CC(=O)N3)CC2)C[C@H]1c1ccc(Cl)c(Cl)c1` [Example 292, {(3S,4R)-4-(3,4-Dichloro-phenyl)-1-[1-((S)-4-oxo-azetidine-2-carbonyl)-piperidine-4-carbonyl]-pyrrolidin-3-yl}-methyl-carbamic acid 4-fluoro-phenyl ester], the pKi is 10.40.

For `CN(C(=O)Oc1ccc(F)cc1)[C@@H]1CN(C(=O)C2CCN(c3ccc(C#N)cn3)CC2)C[C@H]1c1ccc(F)cc1` [Example 131, [(3S,4R)-1-(5′-Cyano-3,4,5,6-tetrahydro-2H-[1,2′]bipyridinyl-4-carbonyl)-4-(4-fluoro-phenyl)-pyrrolidin-3-yl]-methyl-carbamic acid 4-fluoro-phenyl ester], the pKi is 9.00.

Turning to `CN(C(=O)Oc1ccc(C#N)cc1)[C@@H]1CN(C(=O)C2CCN(c3ccc(C#N)cn3)CC2)C[C@H]1c1ccc(Cl)cc1` [Example 228, [(3S,4R)-4-(4-Chloro-phenyl)-1-(5′-cyano-3,4,5,6-tetrahydro-2H-[1,2′]bipyridinyl-4-carbonyl)-pyrrolidin-3-yl]-methyl-carbamic acid 4-cyano-phenyl ester], the pKi was 9.10.

In the case of `CN(C(=O)Oc1ccc(F)cc1)[C@@H]1CN(C(=O)C2CCN(C(=O)OC(C)(C)C)CC2)C[C@H]1c1ccc(Cl)cc1` [Example 133, 4-{(3R,4S)-3-(4-Chloro-phenyl)-4-[(4-fluoro-phenoxycarbonyl)-methyl-amino]-pyrrolidine-1-carbonyl}-piperidine-1-carboxylic acid tert-butyl ester], the pKi was 8.52.

Still in this test, the particulars now being: hNK-3 receptor affinity; membranes from HEK293 cells transiently expressing recombinant human NK3 receptor; [3H]SR142801; Cheng-Prussoff; read-out: Data Ki.
Consider `COCCOC(=O)N(C)[C@@H]1CN(C(=O)C2CCN(c3ccc(C#N)cn3)CC2)C[C@H]1c1ccc(Cl)cc1` [Example 206, [(3S,4R)-4-(4-Chloro-phenyl)-1-(5′-cyano-3,4,5,6-tetrahydro-2H-[1,2′]bipyridinyl-4-carbonyl)-pyrrolidin-3-yl]-methyl-carbamic acid 2-methoxy-ethyl ester], for which the pKi was 7.04.

For the molecule `CN(C(=O)O[C@H]1CC[C@H](C(F)(F)F)CC1)[C@H]1CN(C(=O)C2CCN(c3ccc(C#N)cn3)CC2)C[C@@H]1c1ccc(Cl)cc1` [Example 125, [(3R,4S)-4-(4-Chloro-phenyl)-1-(5′-cyano-3,4,5,6-tetrahydro-2H-[1,2′]bipyridinyl-4-carbonyl)-pyrrolidin-3-yl]-methyl-carbamic acid 4-trifluoromethyl-cyclohexyl ester], the pKi is 7.29.

As to `CN(CCC1CC1)C(=O)N(C)[C@H]1CN(C(=O)C2CCN(C(=O)C3(C)CC3)CC2)C[C@@H]1c1ccc(Cl)c(Cl)c1` (racemic) [Example 97, rac-1-(2-Cyclopropyl-ethyl)-3-{(3R,4S)-4-(3,4-dichloro-phenyl)-1-[1-(1-methyl-cyclopropanecarbonyl)-piperidine-4-carbonyl]-pyrrolidin-3-yl}-1,3-dimethyl-urea], the pKi is 7.51.

Source of the values: patent US9226916B2, “Pyrrolidine derivatives” (HOFFMANN-LA ROCHE INC., priority 2009, dated 2016).
